Results reported in PubChem BioAssay (NCI).
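Assay format: 96-well plates, 48-hour exposure. GI50: concentration for 50% inhibition of growth. At the TGI there is no net growth.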

What was measured:
Test in all cases: NCI-60 cell line screen, 48 h
A549 NSCLC = tested on: A549 NSCLC
DU-145 prostate = tested on: DU-145 prostate
HCT-15 colon = tested on: HCT-15 colon
HOP-62 NSCLC = tested on: HOP-62 NSCLC
OVCAR-5 ovarian = tested on: OVCAR-5 ovarian
SK-OV-3 ovarian = tested on: SK-OV-3 ovarian
SW-620 colon = tested on: SW-620 colon
TK-10 renal = tested on: TK-10 renal
OVCAR-4 ovarian = tested on: OVCAR-4 ovarian
SR leukemia = tested on: SR leukemia

Structure (SMILES) | GI50 (A549 NSCLC) | TGI (A549 NSCLC) | GI50 (DU-145 prostate) | TGI (DU-145 prostate) | GI50 (HCT-15 colon) | TGI (HCT-15 colon) | GI50 (HOP-62 NSCLC) | TGI (HOP-62 NSCLC) | GI50 (OVCAR-5 ovarian) | TGI (OVCAR-5 ovarian) | GI50 (SK-OV-3 ovarian) | TGI (SK-OV-3 ovarian) | GI50 (SW-620 colon) | TGI (SW-620 colon) | GI50 (TK-10 renal) | TGI (TK-10 renal) | TGI (OVCAR-4 ovarian) | TGI (SR leukemia) | GI50 (OVCAR-4 ovarian)
CCCCCC[C@H](C)Nc1nc2ccccc2c2occc12 | 8.3 µM | 26.2 µM | 3.34 µM | 14 µM | 10.1 µM | 22 µM | 11.5 µM | 23.9 µM | 5.54 µM | 20.3 µM | 16.5 µM | 36.2 µM | 5.46 µM | 22.2 µM | 6.46 µM | 20.9 µM | – | – | –
CC(C)CCCC(C)[C@H]1CCC2[C@@H]3CCC4Nc5c(cnn5-c5ccccc5)C[C@]4(C)C3CC[C@@]21C (stereo not given in full) | – | > 100 µM | – | – | – | > 100 µM | – | 45.7 µM | – | > 100 µM | – | > 100 µM | – | > 100 µM | – | > 100 µM | 80.1 µM | – | –
COC(=O)c1c2c(cc3c1CC1(Cc4cc5c(c(C(C)=O)c4C1)CCC5)C3)CCC2 (stereo not given) | – | > 100 µM | – | – | – | – | – | > 100 µM | – | > 100 µM | – | – | – | > 100 µM | – | > 100 µM | > 100 µM | > 100 µM | –
O=S(=O)(NCn1ccc2ccccc21)c1ccccc1 | – | > 100 µM | – | – | – | > 100 µM | – | > 100 µM | – | > 100 µM | – | > 100 µM | – | > 100 µM | – | > 100 µM | – | > 74.3 µM | –
CC(=O)OCC(=O)[C@@]12OC(C)(C)O[C@@H]1C[C@H]1[C@@H]3CC(C=O)=C4C=C(OCCCl)CC[C@]4(C)[C@@]3(F)[C@@H](O)C[C@@]12C | – | > 100 µM | – | – | – | > 100 µM | – | 51.9 µM | – | > 100 µM | – | > 100 µM | – | > 100 µM | – | > 100 µM | > 100 µM | > 100 µM | –
CC(=O)O[C@]1(C)OC(=O)[C@@H](CC(C)C)N1[N+](=O)[O-] | – | > 100 µM | – | – | – | > 100 µM | – | > 100 µM | – | > 100 µM | – | > 100 µM | – | > 100 µM | – | > 100 µM | > 100 µM | > 100 µM | –
NNC(=O)C(=O)N/N=C1\CCC(=O)CC1C(=O)CCC(=O)Nc1ccc(Cl)cc1 (stereo not given) | – | > 100 µM | – | – | – | > 100 µM | – | – | – | > 100 µM | – | > 100 µM | – | > 100 µM | – | > 100 µM | > 100 µM | – | –
O=C(c1ccccc1)c1c(NCC(O)CN2CCOCC2)n(Cc2ccccc2)c(=O)n(Cc2ccccc2)c1=O (stereo not given) | 35.7 µM | > 100 µM | 35.2 µM | > 77.5 µM | 34.4 µM | > 100 µM | 96.9 µM | > 100 µM | 5.53 µM | > 78.7 µM | > 29.9 µM | > 70.1 µM | 52.9 µM | > 100 µM | 30.2 µM | > 100 µM | > 95.3 µM | – | > 45.4 µM
CCOC(=O)CCn1ncc(Cl)c(Cl)c1=O | – | 32.9 µM | – | – | – | 4.69 µM | – | 39.8 µM | – | 32.1 µM | – | 42.5 µM | – | 9.7 µM | – | 34.5 µM | 2.9 µM | 7.28 µM | –
C[Si](C)(C)/C=C\CCO | – | > 100 µM | – | – | – | > 100 µM | – | – | – | > 100 µM | – | > 100 µM | – | > 100 µM | – | > 100 µM | – | > 100 µM | –
C=CCO/N=C(\OC(=O)c1ccc([N+](=O)[O-])cc1)c1ccccc1 | – | > 100 µM | – | – | – | > 100 µM | – | > 100 µM | – | > 100 µM | – | > 100 µM | – | > 100 µM | – | > 100 µM | > 100 µM | – | –
N.N.N.N.N.O=[N+]([O-])[O-].[Co+3].[O-][Cl+3]([O-])([O-])[O-] | > 100 µM | > 100 µM | – | – | > 100 µM | > 100 µM | > 100 µM | > 100 µM | > 100 µM | > 100 µM | > 100 µM | > 100 µM | > 100 µM | > 100 µM | > 100 µM | > 100 µM | > 100 µM | – | > 100 µM
C#Cc1c(C)c(/C=C/C(C)=C/C(=O)OC)n(C)c1C | – | > 100 µM | – | – | – | > 100 µM | – | > 100 µM | – | > 100 µM | – | > 100 µM | – | > 100 µM | – | > 100 µM | > 100 µM | – | –
CC(C)(C)OC(=O)NCCCn1c2c(c3ccccc3c1=O)C(=O)c1ccccc1-2 | 41.9 µM | > 100 µM | 74.8 µM | > 100 µM | > 100 µM | > 100 µM | 11.8 µM | 31.3 µM | – | – | 25 µM | > 100 µM | > 100 µM | > 100 µM | 22.3 µM | 63 µM | – | – | –
CN(C)c1nc2ccccc2c2c1c1c(n2Cc2ccccc2)-c2ccccc2C1=O | > 100 µM | > 100 µM | > 100 µM | > 100 µM | > 100 µM | > 100 µM | > 100 µM | > 100 µM | > 100 µM | > 100 µM | > 100 µM | > 100 µM | > 100 µM | > 100 µM | > 100 µM | > 100 µM | > 100 µM | – | 31.3 µM
COC(=O)C1=C(C(=O)OC)C2(C)C=CC1O2 (stereo not given) | – | > 100 µM | – | 31.8 µM | – | 29.7 µM | – | > 100 µM | – | 31.5 µM | – | > 100 µM | – | 17.2 µM | – | 8.24 µM | 27.2 µM | – | –
c1ccc(-c2nc(N3CCOCC3)c3c4c(sc3n2)CCCCCC4)nc1 | 3.57 µM | 15.9 µM | 6.93 µM | 19.6 µM | 3.43 µM | 18.6 µM | 9.53 µM | 24.6 µM | 10.3 µM | 26.5 µM | 9.25 µM | 22.5 µM | 8.87 µM | 21.9 µM | 9.28 µM | 25.5 µM | 80.3 µM | – | 4.85 µM
O=c1[nH]c2ccccc2n1CCCN1CCC(n2c(=O)[nH]c3cc(Cl)ccc32)CC1 | – | 63.8 µM | – | 39.2 µM | – | 39.9 µM | – | 36.4 µM | – | 43.1 µM | – | 51.5 µM | – | 39.2 µM | – | 39.4 µM | 37.9 µM | – | –
O=C(O)CCNCCCCNCCC(=O)O | – | > 100 µM | – | – | – | > 100 µM | – | > 100 µM | – | > 100 µM | – | > 100 µM | – | > 100 µM | – | > 100 µM | > 100 µM | – | –
COc1ccc(C(=O)NNc2nc(Cl)nc(N3CCN(C(c4ccccc4)c4ccccc4)CC3)n2)cc1 | 17.9 µM | 39.1 µM | 3.93 µM | 13.6 µM | – | – | 2.97 µM | 10.7 µM | 13.2 µM | 33.2 µM | 11.9 µM | 25.8 µM | – | – | > 100 µM | > 100 µM | 3.56 µM | – | 1.81 µM
